Data taken from ChEMBL document CHEMBL3091354, “Tyrosinase and Layer-by-Layer supported tyrosinases in the synthesis of lipophilic catechols with antiinfluenza activity” (Bioorg Med Chem, 2013).
≈ marks a conversion by molar mass, not a printed value. Calls of active or inactive are those of the source. The rule behind the calls is not given here.

How the values were obtained:
[1] = system: Influenza A virus; experiment: Antiviral activity against Influenza A/PR8/H1N1 virus infected in MDCK cells assessed as inhibition of virus yield after 48 hrs; type: functional
[2] = system: Radical scavenging activity; experiment: Antioxidant activity assessed as DPPH radical scavenging activity; type: functional
[3] = system: Influenza A virus; experiment: Antiviral activity against Influenza A/PR8/H1N1 virus infected in MDCK cells assessed as inhibition of virus yield at 10 to 20 ug/ml after 48 hrs; type: functional, organism-based
[4] = system: Influenza A virus; experiment: Antiviral activity against Influenza A/PR8/H1N1 virus infected in MDCK cells assessed as inhibition of virus yield after 24 hrs; type: functional, organism-based
[5] = system: MDCK; experiment: Cytotoxicity against MDCK cells assessed as effect on cell viability at 50 to 100 ug/ml; type: cell-based, Canis lupus familiaris; details: dog
[6] = system: MDCK; experiment: Cytotoxicity against MDCK cells assessed as effect on cell viability at 20 ug/ml; type: cell-based, Canis lupus familiaris; details: dog
[7] = system: MDCK; experiment: Cytotoxicity against MDCK cells assessed as effect on cell morphology at 20 ug/ml; type: cell-based, Canis lupus familiaris; details: dog
[8] = system: MDCK; experiment: Cytotoxicity against MDCK cells assessed as effect on cell morphology at 50 to 100 ug/ml; type: cell-based, Canis lupus familiaris; details: dog

Compound: CCC(=O)OCCc1ccc(O)c(O)c1
- inhibition (INH) [1]: 75%
- EC50 [2]: 0.56 mg/L (≈ 2.66 µM)

Compound: CCCC(=O)OCCc1ccc(O)cc1
- Activity [3]: inactive

Compound: COC(=O)CCc1ccc(O)c(O)c1
- inhibition [1]: inactive
- EC50 [2]: 161.9 mg/L (≈ 825 µM)

Compound: CCCOC(=O)CCc1ccc(O)c(O)c1
- inhibition [1]: inactive
- EC50 [2]: 89.65 mg/L (≈ 400 µM)

Compound: CCOC(=O)CCc1ccc(O)c(O)c1
- inhibition [1]: inactive
- EC50 [2]: 136.7 mg/L (≈ 650 µM)

Compound: NC(=O)c1ncn([C@@H]2O[C@H](CO)[C@@H](O)[C@H]2O)n1 [RIBAVIRIN]
- IC50 [4]: 14 µM

Compound: O=C(O)CCc1ccc(O)cc1
- Activity [2]: inactive

Compound: O=C(O)CCc1ccc(O)c(O)c1 [DIHYDROCAFFEIC ACID]
- inhibition [1]: inactive
- EC50 [2]: 61.29 mg/L (≈ 336 µM)

Compound: COC(=O)CCc1ccc(O)cc1
- Activity [2]: inactive

Compound: CCCCOC(=O)CCc1ccc(O)c(O)c1
- inhibition [1]: inactive
- EC50 [2]: 58.9 mg/L (≈ 247 µM)

Compound: CCCCC(=O)OCCc1ccc(O)cc1
- Activity [3]: inactive

Compound: CC(=O)OCCc1ccc(O)c(O)c1
- inhibition [1]: inactive
- EC50 [2]: 0.57 mg/L (≈ 2.91 µM)

Compound: CCCCC(=O)OCCc1ccc(O)c(O)c1
- Activity [5]: Toxic
- Activity [6]: Non-toxic
- EC50 [2]: 0.59 mg/L (≈ 2.48 µM)
- Activity [7]: Non-toxic
- IC50 [4]: 34 µM
- inhibition [4]: Dose-dependent effect
- Activity [8]: Toxic

Compound: CCCC(=O)OCCc1ccc(O)c(O)c1 [HYDROXYTYROSOL BUTANOATE]
- Activity [5]: Toxic
- Activity [6]: Non-toxic
- EC50 [2]: 0.58 mg/L (≈ 2.59 µM)
- Activity [7]: Non-toxic
- IC50 [4]: 29.8 µM
- inhibition [4]: Dose-dependent effect
- Activity [8]: Toxic
